Experimental findings from PubChem BioAssay (NCI) are described below.

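Assay format: 96-well plates, 48-hour exposure. GI50: concentration for 50% inhibition of growth. TGI marks complete inhibition of growth.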

Holding throughout (test): inhibition of tumour cell growth, NCI panel, 48 h
The subject of test [1] is OVCAR-8 ovarian.
The test system of test [2] is HOP-62 NSCLC.
Test [3] relates to A498 renal.
Test [4] concerns SN12C renal.
The test system of test [5] is COLO 205 colon.
The subject of test [6] is HCT-116 colon.
For test [7], the system named is SF-539 CNS.
Test [8] concerns U251 CNS.
For test [9], the system named is HS 578T breast.
The subject of test [10] is NCI/ADR-RES ovarian.
The subject of test [11] is MDA-N.

As to `Cc1cc(C)nc(NS(=O)(=O)c2ccc(Nc3c4ccccc4nc4c(C(=O)N5CCN(CCOS(C)(=O)=O)CC5)ccc(Cl)c34)cc2)n1`, the TGI in [1], in test [2], in test [3], in test [4], in test [5] and in test [6] was more than 100 µM throughout. The TGI in [7] and in [8] was more than 100 µM in each case.
In the case of `O=C(c1ccccc1)[C@H]1Nc2cnccc2C2c3ccccc3CC21` (stereo not given in full), the TGI in test [1] is 33.9 µM; in test [2], more than 71.4 µM; in [3], 75.4 µM; in test [4], 31.8 µM; in [5], 42.9 µM; in [6], more than 38.4 µM. The TGI in [7] is more than 62.6 µM; in [8] it was 48.8 µM.
Turning to `COC(=O)/C(=N\NC(=S)NN)C(C(=O)C(=O)Nc1ccccc1C(N)=O)c1nc2ccccc2[nH]c1=O` (stereo not given), the TGI in [1], in test [4], in [5], in [6], in [7] and in test [8] was more than 100 µM throughout.
For `OC(c1ccco1)C(F)(F)c1nc2ccccc2o1` (stereo not given), the TGI in test [1], in test [2], in test [3], in [9], in test [5] and in [6] was more than 100 µM each time. Also, the TGI in test [7], in test [10] and in test [8] was more than 100 µM each time.
Consider `O=c1c2cc3c(=O)n(CCc4ccccc4CO)c(=O)c3cc2c(=O)n1CCc1ccccc1CO`, for which the TGI in [1], in [3], in [4], in test [6], in [7] and in test [8] was more than 100 µM in each case.
Regarding `CCCC[C@@H]1CCN2C[C@@H](O)[C@@H](O)[C@H]2[C@@H]1O`, the TGI in [1], in test [3], in test [9], in test [5], in test [6] and in test [7] was more than 100 µM each time. In addition, the TGI in [10] and in test [8] was more than 100 µM throughout.
On to `NC(CCSCC(F)F)C(=O)O` (stereo not given), for which the TGI in test [1], in [2], in test [3], in test [4], in test [5] and in [6] was more than 100 µM throughout. For the same compound, the TGI in [7] and in test [8] was more than 100 µM in each case.
`COc1ccc(CCCCl)c(C2=NCCc3ccccc32)c1`: the TGI is more than 100 µM in test [1]; more than 100 µM in [2]; more than 100 µM in test [3]; more than 100 µM in test [9]; more than 100 µM in test [4]; 82.8 µM in [5]. Besides, the TGI in test [6], in [7], in [10] and in test [8] was more than 100 µM in each case.
With `N#CC(C#N)=Cc1cccc(Oc2ccccc2)c1`, the TGI in test [1] is more than 31.6 µM; in test [2] it was 64.6 µM; in [3], more than 100 µM; in [4], 48.9 µM; in test [5], 73.9 µM; in [6], 32.9 µM. The TGI was determined as 35.1 µM in [7] and 18.9 µM in [8].
As for `CCOC(=O)C(NC(=O)c1ccc(N=NN(C)C)cc1)C(C)C` (stereo not given), the TGI in test [1], in test [2], in test [3], in [4], in test [5] and in test [6] was more than 100 µM in each case. Further, the TGI in test [7] and in test [8] was more than 100 µM in each case.
As to `FC(F)=C(c1ccc(-c2ccc(Cl)cc2)cc1)C(F)(F)F`, the TGI worked out at 57.9 µM in test [1]; 31.9 µM in test [3]; 68.7 µM in [9]; 45.4 µM in [4]; 36.1 µM in test [5]; 32 µM in [6]. The TGI came to 45.3 µM in test [7], 63.8 µM in [10] and 31.4 µM in test [8].
In the case of `Brc1ccc2c(c1)-c1nc3c(cc1CC2)CCc1ccc(Br)cc1-3`, the TGI in test [1], in [2], in [3], in [4], in [5] and in [6] was more than 100 µM each time. Besides, the TGI in [10], in test [11] and in [8] was more than 100 µM throughout.
Turning to `CC1(C)OC(CCO)CN1C(=O)OCc1ccccc1` (stereo not given), the TGI in [1], in [3], in [4], in test [5], in [6] and in test [7] was more than 100 µM in each case. The TGI in test [10], in test [11] and in [8] was more than 100 µM throughout.
On to `COc1ccc(/C=N/Nc2nc3ccccc3c(=O)n2-c2ccccc2)c(OCc2ccccc2)c1`, for which the TGI in [1], in test [2], in test [3], in test [9], in test [4] and in test [5] was more than 100 µM each time. Besides, the TGI in test [6], in [7], in [10] and in test [8] was more than 100 µM throughout. For the same compound, the GI50 in [9] is more than 100 µM.
As for `Nc1nc(Nc2ccc(OCc3cccc(F)c3)cc2)c2c(n1)[nH]c1ccc(O)cc12`, the GI50 in [1] is 3.49 µM; in test [3], 15.7 µM; in [9] it was 2.41 µM; in test [4], 2.08 µM; in test [5], 2.42 µM; in test [7] it was 1.79 µM. Further, the GI50 in test [10] is 9.46 µM; in test [8] it was 2.44 µM. For the same compound, the TGI is 13.2 µM in test [1]; 33.1 µM in test [3]; 6.29 µM in test [9]; 4.56 µM in test [4]; 5.98 µM in [5]; 3.31 µM in test [7]. In addition, the TGI in test [10] came to 32 µM; in test [8] it was 6.09 µM.
Turning to `NC(=S)N=Nc1c(O)cc(Nc2ccc(Cl)cc2Cl)c2ccccc12`, the TGI is 93.9 µM in test [1]; 22.4 µM in test [2]; more than 100 µM in [3]; more than 100 µM in test [4]; more than 100 µM in [5]; more than 100 µM in [6]. The TGI was 53.4 µM in test [7], more than 100 µM in [10], more than 100 µM in test [11] and 38.2 µM in test [8].
For `O=C1c2c(c3c4ccc(Br)cc4oc3c3[nH]c4ccccc4c23)C(=O)N1O`, the GI50 is 1.45 µM in [1], 0.585 µM in test [3] and 2.64 µM in test [10]. In addition, the figures for the TGI in test [1], in test [3] and in test [10] were more than 100 µM, 4.41 µM and more than 100 µM, respectively.
For `O=C(NN1C(=O)CSC1c1ccc(Cl)c(Cl)c1)c1ccncc1` (stereo not given), the TGI in [1], in [3], in test [4], in test [5], in [7] and in [8] was more than 100 µM each time.
In the case of `C=C1CC2C(=O)N(c3ccccc3)C(=O)C2CC1n1[nH]c(=O)n(Cc2ccccc2)c1=O` (stereo not given), the TGI in test [1], in test [2], in test [3], in test [4], in test [5] and in test [6] was more than 100 µM each time. Moreover, the TGI in test [7] and in test [8] was more than 100 µM each time.
In the case of `CC1=C(C(=O)NNC(=O)CC#N)CC(C(=O)NNC(=O)CC#N)=C(C)N1`, the TGI in test [1], in test [2], in [3], in [4], in test [5] and in test [6] was more than 100 µM throughout. Also, the TGI in [7], in [10], in test [11] and in [8] was more than 100 µM throughout.
Turning to `COC(=O)c1cc(C(=O)OC)cc(-c2ccc3c(c2)-c2nc4c(c(-c5ccc(OC)cc5)c2CC3)CCc2ccc(-c3cc(C(=O)OC)cc(C(=O)OC)c3)cc2-4)c1`, the TGI in [2], in [3], in [4], in test [5], in test [6] and in test [10] was more than 100 µM in each case. Further, the TGI in test [11] and in test [8] was more than 100 µM each time.
In the case of `COC(=O)C(=O)C(C(=O)C(=O)Nc1cc([N+](=O)[O-])ccc1C#N)c1nc2ccccc2[nH]c1=O` (stereo not given), the TGI in test [1], in test [2], in [4], in test [5], in [6] and in [7] was more than 100 µM in each case.
Consider `c1ccc([P+](Cc2csnn2)(c2ccccc2)c2ccccc2)cc1`, for which the TGI in test [1], in test [2], in [3], in test [4], in [5] and in test [6] was more than 100 µM each time. Moreover, the TGI in test [7] and in test [8] was more than 100 µM each time.
`NNC(=O)c1cccc2c1Oc1ccccc1S2`: the TGI in test [1], in test [2], in test [3], in test [9], in test [5] and in [6] was more than 100 µM each time. Moreover, the TGI in test [7], in [10] and in [8] was more than 100 µM in each case.
On to `COc1cc(/C=C/c2cc(=O)cc(/C=C/c3ccc(O)c(OC)c3)o2)ccc1O`, for which the TGI was more than 100 µM in test [1]; more than 63.8 µM in [2]; more than 100 µM in test [3]; more than 100 µM in [9]; more than 100 µM in test [4]; more than 100 µM in [5]. Further, the TGI in [6], in test [7], in [10] and in test [8] was more than 100 µM in each case.
`CCC1(CC)C(=O)NC(=S)N=C1N`: the TGI in [1], in [2], in test [3], in test [4], in [5] and in test [6] was more than 100 µM each time. In addition, the TGI in [7] and in test [8] was more than 100 µM throughout.
Take `CN1c2ccccc2C(=O)NC12CCN(CC1COc3ccccc3O1)CC2` (stereo not given): the TGI in [1] was more than 100 µM; in test [2], more than 100 µM; in test [3], 98.4 µM; in test [9], more than 100 µM; in test [5], more than 100 µM; in test [6], more than 100 µM. The TGI in test [7], in test [10] and in test [8] was more than 100 µM in each case.
Turning to `CCOC(=O)/C(=C/c1ccco1)P(=O)(OCC)OCC`, the TGI in test [1], in test [3], in [4], in test [5], in [6] and in [7] was more than 100 µM each time. The TGI in [8] was more than 100 µM.
Consider `NC(=O)NC(=NCc1ccccc1)NCc1ccccc1`, for which the TGI in test [1], in test [2], in [4], in test [5], in test [6] and in test [7] was more than 100 µM throughout. For the same compound, the TGI in test [8] was more than 100 µM.
In the case of `CC1=NC(C)(C)N(O)C1(C)C`, the TGI in [1], in test [2], in [3], in test [4], in test [5] and in test [6] was more than 100 µM each time. Moreover, the TGI in test [7], in test [10], in [11] and in test [8] was more than 100 µM each time.
